Reference: patent US9926315B2, “Triazolopyridine compounds and methods for the treatment of cystic fibrosis” (Flatley Discovery Lab, LLC, priority 2014, dated 2018)

Target: T1, human ΔF508-CFTR (Homo sapiens, UniProt P13569, DEL508-508)
T1 construct: expressed in transfected cells
Assay: CFTR-YFP High Throughput Assay (HTS YFP flux assay, corrector / potentiator protocols)
Type: cell-based
Settings: FRT cells stably expressing human ΔF508-CFTR and YFP-H148Q/I152L; for Emax: normalized to positive control, read-out: Emax (% Efficacy, EMax normalized to the positive control)
Procedure: Assays for Detecting and Measuring the Effect of Compounds on dF508-CFTR Channels CFRT-YFP High Throughput Assay: Corrector Assay:
The following protocol is designed to selectively screen small molecule compounds for F508del CFTR corrector activities in the HTS YFP flux assay. In this protocol, the cells are incubated with testing compounds for 24 hours, washed with PBS, stimulated with forskolin and a standard potentiator, and read on a 384-well HTS plate reader, such as the Hamamatsu FDDD-6000.
(§1) YFP fluorescence intensity is acquired at high speed before and after iodide buffer is injected to the assay cells. Iodide enters the cells via active CFTR channels in the plasma membrane, and quenches the YFP fluorescence. The rate of fluorescence quenching is proportionally related to the total CFTR activities in the cell membrane. dF508-CFTR corrector accelerates YFP quenching by increasing the number of CFTR molecules in the testing cell plasma membrane.
This method was initially developed for bench top plate readers (Galietta, 2001), and was adapted to the HTS format (Sui, 2010).
Fisher Rat Thyroid (FRT) cells stably expressing both human ΔF508-CFTR and a halide-sensitive yellow fluorescent protein (YFP-H148Q/I152L 25, 22) (Galietta, 2001) were cultured on plastic surface in Coon's modified Ham's F12 medium supplemented with FBS 10%, L-glutamine 2 mM, penicillin 100 U/mL, and streptomycin 100 μg/mL. G418 (0.75-1.0 mg/mL) and zeocin (3.2 μg/mL) were used for selection of FRT cells expressing ΔF508-CFTR and YFP. For primary screening, FRT cells were plated into 384-well black wall, transparent bottom microtiter plates (Costar; Corning Inc.) at a cell density of 20, 000-40, 000 per well. Test compound was applied to the cells at varying concentrations ranging from 2 nM-[…] in either a 2-fold or 3-fold dilution series. Cells were incubated in a cell culture incubator at 37° C. with 5% CO2 for 24-26 h. Assay plates were washed with DPBS media (Thermo, cat#SH30028.02) to remove unbound cells and compound. Stimulation media (25 μL) containing 20 μM Forskolin & 30 μM P3 [6-(Ethyl-phenyl-sulfonyl)-4-oxo-1, 4-dihydro-quinoline-3-carboxylic acid 2-methoxy-benzylamide] in Hams F-12 coon's modified media was added to the plate wells and incubated at room temperature for 60-120 min. 25 μL of HEPES-PBS-I buffer (10 mM HEPES, 1 mM MgCl2, 3 mM KCl, 1 mM CaCl2, 150 mM NaI) was then added and fluorescence quench curves (Excitation 500 nm/Emission 540 nm; exposure 136 ms) were immediately recorded on an FDSS-6000 plate reader (Hamamatsu). Quench rates were derived from least squares fitting of the data (Sui, 2010).
The following protocol is designed to selectively screen small molecule compounds for F508del CFTR potentiator activities in the HTS YFP flux assay. In this protocol, the cells are incubated at 27° C. for 24 hours with homogeneously boosted dF508-CFTR expression in the cell membrane by the low temperature, washed with PBS, stimulated with forskolin, and read on a 384-well HTS plate reader, such as the Hamamatsu […].
as §1, with “dF508del-CFTR potentiators accelerate” for “dF508-CFTR corrector accelerates”, “increasing” for “increasing the number of”, “activities” for “molecules”
Fisher Rat Thyroid (FRT) cells stably expressing both human ΔF508-CFTR and a halide-sensitive yellow fluorescent protein (YFP-H148Q/I152L 25, 22) (Galietta, 2001) were cultured on plastic surface in Coon's modified Ham's F12 medium supplemented with FBS 10%, L-glutamine 2 mM, penicillin 100 U/mL, and streptomycin 100 μg/mL. G418 (0.75-1.0 mg/mL) and zeocin (3.2 μg/mL) were used for selection of FRT cells expressing ΔF508-CFTR and YFP. […]

T1 sequence (P13569 with tags, fused parts or gaps DEL508-508): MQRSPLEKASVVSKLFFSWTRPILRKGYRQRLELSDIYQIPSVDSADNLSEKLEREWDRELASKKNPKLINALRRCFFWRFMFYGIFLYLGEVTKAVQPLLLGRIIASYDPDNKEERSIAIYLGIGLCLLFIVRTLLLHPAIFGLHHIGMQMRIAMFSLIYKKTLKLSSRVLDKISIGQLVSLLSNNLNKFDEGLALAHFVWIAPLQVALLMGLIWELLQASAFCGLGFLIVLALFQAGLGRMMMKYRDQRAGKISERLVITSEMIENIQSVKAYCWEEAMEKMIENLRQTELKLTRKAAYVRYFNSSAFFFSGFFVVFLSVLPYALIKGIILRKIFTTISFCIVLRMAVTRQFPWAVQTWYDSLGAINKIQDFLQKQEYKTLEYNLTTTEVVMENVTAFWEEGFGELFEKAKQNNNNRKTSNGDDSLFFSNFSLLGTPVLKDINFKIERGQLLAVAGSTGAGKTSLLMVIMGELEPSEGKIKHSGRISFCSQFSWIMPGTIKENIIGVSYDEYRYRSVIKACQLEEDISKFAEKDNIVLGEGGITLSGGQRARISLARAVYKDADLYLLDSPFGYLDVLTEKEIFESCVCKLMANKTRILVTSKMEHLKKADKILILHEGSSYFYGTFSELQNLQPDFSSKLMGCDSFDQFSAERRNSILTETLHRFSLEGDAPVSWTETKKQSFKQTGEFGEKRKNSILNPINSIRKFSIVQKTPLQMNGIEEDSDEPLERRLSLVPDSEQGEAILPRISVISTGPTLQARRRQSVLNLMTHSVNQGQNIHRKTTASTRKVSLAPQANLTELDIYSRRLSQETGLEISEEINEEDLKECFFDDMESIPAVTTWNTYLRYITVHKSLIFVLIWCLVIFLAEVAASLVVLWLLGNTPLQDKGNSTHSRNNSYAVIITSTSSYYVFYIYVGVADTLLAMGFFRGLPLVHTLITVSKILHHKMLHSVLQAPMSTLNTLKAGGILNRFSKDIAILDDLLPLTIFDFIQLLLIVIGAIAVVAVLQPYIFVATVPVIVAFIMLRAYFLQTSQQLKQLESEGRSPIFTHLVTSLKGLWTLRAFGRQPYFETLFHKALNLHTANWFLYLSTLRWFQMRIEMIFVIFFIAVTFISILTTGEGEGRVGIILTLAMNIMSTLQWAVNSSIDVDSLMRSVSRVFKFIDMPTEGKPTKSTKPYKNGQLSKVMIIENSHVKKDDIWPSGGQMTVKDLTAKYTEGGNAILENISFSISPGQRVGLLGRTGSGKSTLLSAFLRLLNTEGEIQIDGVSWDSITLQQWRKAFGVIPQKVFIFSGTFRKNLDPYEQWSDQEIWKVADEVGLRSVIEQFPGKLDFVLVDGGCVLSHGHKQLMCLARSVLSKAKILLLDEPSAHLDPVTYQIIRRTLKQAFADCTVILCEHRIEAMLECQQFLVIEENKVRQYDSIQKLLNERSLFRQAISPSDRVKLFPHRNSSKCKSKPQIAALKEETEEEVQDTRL

Row | SMILES | EC50 [µM] | Emax [%]
1 | CCN(CC)S(=O)(=O)c1ccc2nnc(NCc3ccccc3)n2c1 [Example 1, 3-(Benzylamino)-N,N-diethyl-[1,2,4]triazolo[4,3-a]pyridine-6-sulfonamide] | < 1 | > 80
2 | CCN(CC)S(=O)(=O)c1ccc2nnc(NC3CCCc4ccccc43)n2c1 (centres unmarked) [Example 2] | < 1 | > 80
3 | CCN(CC)S(=O)(=O)c1ccc2nnc(N(C)Cc3ccccc3)n2c1 [Example 3] | < 1 | 40 to 80
4 | CCN(CC)S(=O)(=O)c1ccc2nnc(NC3Cc4ccccc4C3)n2c1 [Example 4] | < 1 | > 80
5 | CCN(CC)S(=O)(=O)c1ccc2nnc(NCc3ccc(-c4ccccc4)cc3)n2c1 [Example 5] | < 1 | > 80
6 | CCN(CC)S(=O)(=O)c1ccc2nnc(N3CCN(Cc4ccccc4)CC3)n2c1 [Example 6] | 1 to 10 | 40 to 80
7 | CCN(CC)S(=O)(=O)c1ccc2nnc(NCC(C)(C)C)n2c1 [Example 7] | < 1 | 40 to 80
8 | CCN(CC)S(=O)(=O)c1ccc2nnc(NCC3CC3)n2c1 [Example 8] | < 1 | > 80
9 | CCN(CC)S(=O)(=O)c1ccc2nnc(NCc3ccc(C)cc3)n2c1 [Example 9] | < 1 | > 80
10 | CCN(CC)S(=O)(=O)c1ccc2nnc(NCc3cccc(C)c3)n2c1 [Example 10] | < 1 | > 80
11 | CCN(CC)S(=O)(=O)c1ccc2nnc(NC3CCCCC3)n2c1 [Example 11] | < 1 | > 80
12 | CCN(CC)S(=O)(=O)c1ccc2nnc(NC(=O)c3ccccc3)n2c1 [Example 12] | 1 to 10 | 40 to 80
13 | CCN(CC)S(=O)(=O)c1ccc2nnc(NCc3ccccc3C)n2c1 [Example 13] | < 1 | 40 to 80
14 | CCN(CC)S(=O)(=O)c1ccc2nnc(NCC3CCCO3)n2c1 (centres unmarked) [Example 14] | > 10 | 40 to 80
15 | CCN(CC)S(=O)(=O)c1ccc2nnc(NCc3cccnc3)n2c1 [Example 15] | > 10 | 40 to 80
16 | CCN(CC)S(=O)(=O)c1ccc2nnc(NCc3ccc(OC)cc3)n2c1 [Example 16] | < 1 | 40 to 80
17 | CCN(CC)S(=O)(=O)c1ccc2nnc(NCC(C)C)n2c1 [Example 17] | < 1 | > 80
18 | CCN(CC)S(=O)(=O)c1ccc2nnc(NCC(C)(C)O)n2c1 [Example 18] | 1 to 10 | 40 to 80
19 | CCN(CC)S(=O)(=O)c1ccc2nnc(NCCC(C)C)n2c1 [Example 19] | < 1 | > 80
20 | CCN(CC)S(=O)(=O)c1ccc2nnc(N[C@H](C)c3ccccc3)n2c1 [Example 20] | < 1 | > 80
21 | CCN(CC)S(=O)(=O)c1ccc2nnc(N[C@@H](C)c3ccccc3)n2c1 [Example 21] | < 1 | > 80
22 | CCN(CC)S(=O)(=O)c1ccc2nnc(NCC(=O)Nc3ccc(C)c(C)c3)n2c1 [Example 22] | < 1 | 40 to 80
23 | CCN(CC)S(=O)(=O)c1ccc2nnc(NC[C@H]3CCCO3)n2c1 [Example 23] | > 10 | > 80
24 | CCN(CC)S(=O)(=O)c1ccc2nnc(NCC(O)COC)n2c1 (centres unmarked) [Example 24] | 1 to 10 | > 80
25 | CCN(CC)S(=O)(=O)c1ccc2nnc(NCCc3ccccc3)n2c1 [Example 25] | < 1 | > 80
26 | CCN(CC)S(=O)(=O)c1ccc2nnc(NC3CCCC3)n2c1 [Example 26] | < 1 | > 80

Row | SMILES | EC50 [µM] | Emax [%]
27 | CCN(CC)S(=O)(=O)c1ccc2nnc(NC(C)c3ccc(C)cc3)n2c1 (centres unmarked) [Example 27] | < 1 | > 80
28 | CCN(CC)S(=O)(=O)c1ccc2nnc(NC(C)c3ccc(OC)cc3)n2c1 (centres unmarked) [Example 28] | < 1 | > 80
29 | CCC(Nc1nnc2ccc(S(=O)(=O)N(CC)CC)cn12)c1ccccc1 (centres unmarked) [Example 29] | < 1 | > 80
30 | CCN(CC)S(=O)(=O)c1ccc2nnc(NC3CCc4ccccc43)n2c1 (centres unmarked) [Example 30] | < 1 | > 80
31 | CCN(CC)S(=O)(=O)c1ccc2nnc(NCC(C)(C)OC)n2c1 [Example 31] | 1 to 10 | 40 to 80
32 | CCN(CC)S(=O)(=O)c1ccc2nnc(NC3CCc4ccccc4C3)n2c1 (centres unmarked) [Example 32] | 1 to 10 | 40 to 80
33 | CCN(CC)S(=O)(=O)c1ccc2nnc(N[C@@H]3C[C@H]4CC[C@@H]3C4)n2c1 [Example 33] | < 1 | > 80
34 | CCN(CC)S(=O)(=O)c1ccc2nnc(N[C@H](C)C3CCCCC3)n2c1 [Example 34] | < 1 | > 80
35 | CCN(CC)S(=O)(=O)c1ccc2nnc(N[C@H](C)c3ccc(C)cc3)n2c1 [Example 35] | < 1 | > 80
36 | CCN(CC)S(=O)(=O)c1ccc2nnc(NCc3ccc(OC(C)C)cc3)n2c1 [Example 36] | < 1 | > 80
37 | CCN(CC)S(=O)(=O)c1ccc2nnc(NCc3ccc(N(C)C)cc3)n2c1 [Example 37] | < 1 | > 80
38 | CCN(CC)S(=O)(=O)c1ccc2nnc(N[C@@H](C)c3ccc(C)cc3)n2c1 [Example 38] | < 1 | > 80
39 | CCN(CC)S(=O)(=O)c1ccc2nnc(NCc3ccc(C)c(C)c3)n2c1 [Example 39] | < 1 | > 80
40 | CCN(CC)S(=O)(=O)c1ccc2nnc(NCc3ccc4c(c3)CCO4)n2c1 [Example 40] | < 1 | > 80
41 | CCN(CC)S(=O)(=O)c1ccc2nnc(N[C@H](C)c3ccc(F)cc3)n2c1 [Example 41] | < 1 | > 80
42 | CCN(CC)S(=O)(=O)c1ccc2nnc(NC(C)CC(C)C)n2c1 (centres unmarked) [Example 42] | < 1 | > 80
43 | CCN(CC)S(=O)(=O)c1ccc2nnc(NC(C)C(C)C)n2c1 (centres unmarked) [Example 43] | < 1 | > 80
44 | CCN(CC)S(=O)(=O)c1ccc2nnc(NC3CCOc4ccccc43)n2c1 (centres unmarked) [Example 44] | < 1 | > 80
45 | CCN(CC)S(=O)(=O)c1ccc2nnc(NCCC(C)(C)C)n2c1 [Example 45] | < 1 | > 80
46 | CCN(CC)S(=O)(=O)c1ccc2nnc(N[C@@H]3CCc4ccccc43)n2c1 [Example 46] | < 1 | 40 to 80
47 | CC(C)N(C(C)C)S(=O)(=O)c1ccc2nnc(N[C@H](C)c3ccccc3)n2c1 [Example 47] | < 1 | 40 to 80
48 | CCN(CC)S(=O)(=O)c1ccc2nnc(NCc3ccc(C(F)(F)F)cc3)n2c1 [Example 48] | < 1 | > 80
49 | CCN(CC)S(=O)(=O)c1ccc2nnc(NCc3ccc(F)cc3)n2c1 [Example 49] | < 1 | > 80
50 | CCN(CC)S(=O)(=O)c1ccc2nnc(NCC3CCOCC3)n2c1 [Example 50] | < 1 | > 80
51 | CCN(CC)S(=O)(=O)c1ccc2nnc(N[C@@H](c3ccccc3)C(C)C)n2c1 [Example 51] | < 1 | > 80
52 | CCN(CC)S(=O)(=O)c1ccc2nnc(NCC3CCCCC3)n2c1 [Example 52] | 1 to 10 | > 80
